Experimental data: US20240409585A1, “MACROCYCLIC IMMUNOMODULATORS” (priority 2021, published 2024)
Numbered stars: 1 amine (or outer) side, 2 acyl side, 3 side chain; on linkers, the order of the positions; unused ones are H or OH. Bridge positions count the residues as written; N and C are the ends. Square brackets hold non-standard residues; d marks the D form. Peptide text beside a SMILES is read from it. * marks the point of attachment. Bip(4'-COOH) = N[C@@H](Cc1ccc(-c2ccc(C(=O)O)cc2)cc1)C(=O)O; Bip(4'-NHAc) = CC(=O)Nc1ccc(-c2ccc(C[C@H](N)C(=O)O)cc2)cc1; Trp(1-CH2COOH) = N[C@@H](Cc1cn(CC(=O)O)c2ccccc12)C(=O)O; Phe(3-CF3) = N[C@@H](Cc1cccc(C(F)(F)F)c1)C(=O)O; Ala(morpholin-4-yl) = N[C@@H](CN1CCOCC1)C(=O)O; Phe(4-CONH2) = NC(=O)c1ccc(C[C@H](N)C(=O)O)cc1; Phe(4-COOH) = N[C@@H](Cc1ccc(C(=O)O)cc1)C(=O)O; Bip = N[C@@H](Cc1ccc(-c2ccccc2)cc1)C(=O)O; Phe(3-Me) = Cc1cccc(C[C@H](N)C(=O)O)c1; Abu(3S-NH2) = C[C@H](N)[C@H](N)C(=O)O; Glutaryl = O=C(CCCC(=O)[*:2])[*:1]; Val(3-OH) = CC(C)(O)[C@H](N)C(=O)O; hPhe = N[C@@H](CCc1ccccc1)C(=O)O; 2Pal = N[C@@H](Cc1ccccn1)C(=O)O; Cha = N[C@@H](CC1CCCCC1)C(=O)O; aThr = C[C@H](O)[C@H](N)C(=O)O; Carboxymethyl = O=C(O)C*; NMeA = CN[C@@H](C)C(=O)O; Orn = NCCC[C@H](N)C(=O)O; Dab = NCC[C@H](N)C(=O)O; Dap = NC[C@H](N)C(=O)O; X43 = c1coc(N*)n1

Molecular target: T1, Alexa fluor-647 labeled human PD-L1-Ig binding to Jurkat cell line over-expressing human PD-1 (Homo sapiens, UniProt Q15116)
T1 construct: expressed in transfected cells; host or cells: Jurkat
T1 sequence (Q15116 25-288): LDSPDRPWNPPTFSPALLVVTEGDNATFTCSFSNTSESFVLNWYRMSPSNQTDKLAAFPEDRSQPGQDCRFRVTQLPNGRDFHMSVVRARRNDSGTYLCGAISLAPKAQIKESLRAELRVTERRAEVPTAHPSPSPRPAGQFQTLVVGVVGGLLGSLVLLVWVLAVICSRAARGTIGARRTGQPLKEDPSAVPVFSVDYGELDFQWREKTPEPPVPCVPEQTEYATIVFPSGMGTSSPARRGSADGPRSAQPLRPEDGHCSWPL
Test: Jurkat-PD-1 Cell Binding High-Content Screening Assay (CBA): Method 3 (Alexa fluor-647 labeled PD-L1-Ig)
Details: Jurkat-PD-1 cells, Alexa fluor-647 labeled PD-L1-Ig 177 nM; head μM; read-out: CBA Method 3 μM
How it was run: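 Readout by high-content imaging of PFA-fixed, Hoechst-stained cells after 1 h with 177 nM (final) Alexa fluor-647 PD-L1-Ig. Compound was added first to hPD-1 Jurkat cells in RPMI plus 10% FCS for 2 h at 37 °C.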

Row | IC50 | Structure (SMILES)
1 | 0.06 µM | CC(C)[C@@H]1NC(=O)[C@H](Cc2c[nH]c3ccccc23)NC(=O)[C@H](CC(=O)O)NC(=O)[C@H](Cc2ccc(O)cc2)NC(=O)[C@H](CC2CCCCC2)NC(=O)CSC[C@@H](C(=O)N[C@@H](CCN)C(N)=O)NC(=O)[C@H]([C@H](C)O)NC(=O)[C@H](C(C)(C)O)NC(=O)[C@H](CC2CCCCC2)NC(=O)[C@H](CCC(=O)O)NC(=O)[C@@H](C)NC(=O)[C@H](C)N(C)C(=O)[C@H](C(C)C)NC(=O)[C@H](Cc2ccc(-c3ccccc3)cc2)NC1=O [Example 5150] ({CH2CO}-[Cha]YDWV[Bip]V[NMeA][dA]E[Cha][Val(3-OH)][aThr]C[Dab]-NH2; thioether N-14)
2 | 0.02 µM | Cc1cccc(C[C@@H]2NC(=O)[C@H](CC(=O)O)NC(=O)[C@H](Cc3ccc(OCC(=O)O)cc3)NC(=O)[C@H](CC3CCCCC3)NC(=O)CSC[C@@H](C(=O)N[C@@H](CCN)C(N)=O)NC(=O)[C@H](CCC(N)=O)NC(=O)[C@H](C(C)C)NC(=O)[C@H](CC3CCCCC3)NC(=O)[C@H](CCN)NC(=O)[C@@H](CC(C)C)NC(=O)[C@H](C)N(C)C(=O)[C@H](CCC(N)=O)NC(=O)[C@H](Cc3ccc(-c4ccccc4)cc3)NC(=O)[C@H](CCc3ccccc3)NC2=O)c1 [Example 5222] ({CH2CO}-[Cha]Y(Carboxymethyl)D[Phe(3-Me)][hPhe][Bip]Q[NMeA][dL][Dab][Cha]VQC[Dab]-NH2; thioether N-14)
3 | 0.04 µM | Cc1cccc(C[C@@H]2NC(=O)[C@H](CC(=O)O)NC(=O)[C@H](Cc3ccc(OCC(=O)O)cc3)NC(=O)[C@H](CC3CCCCC3)NC(=O)CSC[C@@H](C(=O)N[C@@H](CCN)C(N)=O)NC(=O)[C@H](CCCN)NC(=O)[C@H](C(C)C)NC(=O)[C@H](Cc3ccccn3)NC(=O)[C@H](CCN)NC(=O)[C@@H](CC(C)C)NC(=O)[C@H](C)N(C)C(=O)[C@H](CCC(N)=O)NC(=O)[C@H](Cc3ccc(-c4ccccc4)cc3)NC(=O)[C@H](Cc3ccc(C(=O)O)cc3)NC2=O)c1 [Example 5194] ({CH2CO}-[Cha]Y(Carboxymethyl)D[Phe(3-Me)][Phe(4-COOH)][Bip]Q[NMeA][dL][Dab][2Pal]V[Orn]C[Dab]-NH2; thioether N-14)

Further lines, the compound ahead of its results:

Row | Structure (SMILES) | IC50
4 | CC(C)C[C@H]1NC(=O)[C@H](C)N(C)C(=O)[C@H](CCCN)NC(=O)[C@H](Cc2ccc(-c3ccccc3)cc2)NC(=O)[C@H](Cc2ccc(-c3ccc(C(=O)O)cc3)cc2)NC(=O)[C@H](Cc2cccc(C(F)(F)F)c2)NC(=O)[C@H](CC(=O)Nc2ncco2)NC(=O)[C@H](Cc2ccc(-c3ccc(C(=O)O)cc3)cc2)NC(=O)[C@H](Cc2ccc(OCC(=O)O)cc2)NC(=O)CSC[C@@H](C(=O)N[C@@H](CCN)C(N)=O)NC(=O)[C@H](CC(N)=O)NC(=O)[C@H](C(C)C)NC(=O)[C@H](CC2CCCCC2)NC(=O)[C@H](CCN)NC1=O [Example 5116] ({CH2CO}-Y(Carboxymethyl)[Bip(4'-COOH)]D(X43)[Phe(3-CF3)][Bip(4'-COOH)][Bip][Orn][NMeA][dL][Dab][Cha]VNC[Dab]-NH2; thioether N-14) | 0.33 µM
5 | Cc1cccc(C[C@@H]2NC(=O)[C@H](CC(=O)O)NC(=O)[C@H](Cc3ccc(-c4ccc(C(=O)O)cc4)cc3)NC(=O)[C@H](CN3CCOCC3)NC(=O)CSC[C@@H](C(=O)N[C@@H](CCN)C(N)=O)NC(=O)[C@H](CO)NC(=O)[C@H](C(C)(C)O)NC(=O)[C@H](CC3CCCCC3)NC(=O)[C@H](Cc3cnc[nH]3)NC(=O)[C@@H](CC(C)C)NC(=O)[C@H](C)N(C)C(=O)[C@H](Cc3ccc(C(=O)O)cc3)NC(=O)[C@H](Cc3ccc(-c4ccccc4)cc3)NC(=O)[C@H](Cc3ccc(-c4ccc(C(=O)O)cc4)cc3)NC2=O)c1 [Example 5122] ({CH2CO}-[Ala(morpholin-4-yl)][Bip(4'-COOH)]D[Phe(3-Me)][Bip(4'-COOH)][Bip][Phe(4-COOH)][NMeA][dL]H[Cha][Val(3-OH)]SC[Dab]-NH2; thioether N-14) | 0.11 µM
6 | Cc1cccc(C[C@@H]2NC(=O)[C@H](CC(=O)O)NC(=O)[C@H](Cc3ccc(C(=O)O)cc3)NC(=O)[C@H]([C@H](C)N)NC(=O)CSC[C@@H](C(=O)N[C@@H](CCN)C(N)=O)NC(=O)[C@H](CCC(N)=O)NC(=O)[C@H](C(C)C)NC(=O)[C@H](CC3CCCCC3)NC(=O)[C@H](CCN)NC(=O)[C@@H](CC(C)C)NC(=O)[C@H](C)N(C)C(=O)[C@H](Cc3ccc(C(N)=O)cc3)NC(=O)[C@H](Cc3ccc(-c4ccccc4)cc3)NC(=O)[C@H](Cc3ccc(OCC(=O)O)cc3)NC2=O)c1 [Example 5119] ({CH2CO}-[Abu(3S-NH2)][Phe(4-COOH)]D[Phe(3-Me)]Y(Carboxymethyl)[Bip][Phe(4-CONH2)][NMeA][dL][Dab][Cha]VQC[Dab]-NH2; thioether N-14) | 0.02 µM

Same assay, conditions: Jurkat-PD-1 cells, Alexa fluor-647 labeled PD-L1-Ig 177 nM; nM; read-out: CBA Method 3

Row | IC50 | Structure (SMILES)
7 | 0.0044 µM | Cc1cccc(C[C@@H]2NC(=O)[C@H](CC(=O)O)NC(=O)[C@H](Cc3ccc(OCC(=O)O)cc3)NC(=O)[C@H](Cc3cn(CC(=O)O)c4ccccc34)NC(=O)CSC[C@@H](C(=O)N[C@@H](CCN)C(N)=O)NC(=O)[C@H](CCCN)NC(=O)[C@H](C(C)C)NC(=O)[C@H](CC3CCCCC3)NC(=O)[C@H](CCN)NC(=O)[C@@H](CC(C)C)NC(=O)[C@H](C)N(C)C(=O)[C@H](CCC(N)=O)NC(=O)[C@H](Cc3ccc(-c4ccccc4)cc3)NC(=O)[C@H](Cc3ccc(C(=O)O)cc3)NC2=O)c1 [Example 5171] ({CH2CO}-[Trp(1-CH2COOH)]Y(Carboxymethyl)D[Phe(3-Me)][Phe(4-COOH)][Bip]Q[NMeA][dL][Dab][Cha]V[Orn]C[Dab]-NH2; thioether N-14)
8 | 0.0034 µM | CC(C)C[C@H]1NC(=O)[C@H](C)N(C)C(=O)[C@H](Cc2ccc(C(=O)O)cc2)NC(=O)[C@H](Cc2ccc(-c3ccccc3)cc2)NC(=O)[C@H](Cc2ccc(C(=O)O)cc2)NC(=O)[C@H](Cc2cccc(C(F)(F)F)c2)NC(=O)[C@H](CC(=O)O)NC(=O)[C@H](Cc2ccc(C(=O)O)cc2)NC(=O)[C@H](CN2CCOCC2)NC(=O)CSC[C@@H](C(=O)N[C@@H](CCN)C(N)=O)NC(=O)[C@H](CNC(=O)CCCC(=O)O)NC(=O)[C@H](C(C)C)NC(=O)[C@H](CC2CCCCC2)NC(=O)[C@H](CCN)NC1=O [Example 5234] ({CH2CO}-[Ala(morpholin-4-yl)][Phe(4-COOH)]D[Phe(3-CF3)][Phe(4-COOH)][Bip][Phe(4-COOH)][NMeA][dL][Dab][Cha]V[Dap](Glutaryl)C[Dab]-NH2; thioether N-14)

The next lines start with the compound.

Row | Structure (SMILES) | IC50
9 | Cc1cccc(C[C@@H]2NC(=O)[C@H](CC(=O)O)NC(=O)[C@H](Cc3ccc(-c4ccc(C(=O)O)cc4)cc3)NC(=O)[C@H](CN3CCOCC3)NC(=O)CSC[C@@H](C(=O)N[C@@H](CCN)C(N)=O)NC(=O)[C@H](CCC(=O)O)NC(=O)[C@H](C(C)(C)O)NC(=O)[C@H](CC(C)C)NC(=O)[C@H](CC(N)=O)NC(=O)[C@@H](CC(C)C)NC(=O)[C@H](C)N(C)C(=O)[C@H](C(C)C)NC(=O)[C@H](Cc3ccc(-c4ccccc4)cc3)NC(=O)[C@H](CC(C)C)NC2=O)c1 [Example 5126] ({CH2CO}-[Ala(morpholin-4-yl)][Bip(4'-COOH)]D[Phe(3-Me)]L[Bip]V[NMeA][dL]NL[Val(3-OH)]EC[Dab]-NH2; thioether N-14) | 0.0032 µM
10 | CC(=O)Nc1ccc(-c2ccc(C[C@@H]3NC(=O)[C@H](Cc4cccc(C(F)(F)F)c4)NC(=O)[C@H](CC(=O)O)NC(=O)[C@H](Cc4ccc(C(=O)O)cc4)NC(=O)[C@H]([C@H](C)N)NC(=O)CSC[C@@H](C(=O)N[C@@H](CCN)C(N)=O)NC(=O)[C@H](CCC(=O)O)NC(=O)[C@H](C(C)C)NC(=O)[C@H](CC4CCCCC4)NC(=O)[C@H](CCN)NC(=O)[C@@H](CC(C)C)NC(=O)[C@H](C)N(C)C(=O)[C@H](Cc4ccc(C(N)=O)cc4)NC(=O)[C@H](Cc4ccc(-c5ccccc5)cc4)NC3=O)cc2)cc1 [Example 5118] ({CH2CO}-[Abu(3S-NH2)][Phe(4-COOH)]D[Phe(3-CF3)][Bip(4'-NHAc)][Bip][Phe(4-CONH2)][NMeA][dL][Dab][Cha]VEC[Dab]-NH2; thioether N-14) | 0.0017 µM
11 | CC(=O)Nc1ccc(-c2ccc(C[C@@H]3NC(=O)[C@H](Cc4cccc(C(F)(F)F)c4)NC(=O)[C@H](CC(=O)O)NC(=O)[C@H](Cc4ccc(C(=O)O)cc4)NC(=O)[C@H](CN4CCOCC4)NC(=O)CSC[C@@H](C(=O)N[C@@H](CCN)C(N)=O)NC(=O)[C@H](CC(N)=O)NC(=O)[C@H](C(C)C)NC(=O)[C@H](CC4CCCCC4)NC(=O)[C@H](CCN)NC(=O)[C@@H](CC(C)C)NC(=O)[C@H](C)N(C)C(=O)[C@H](CCCN)NC(=O)[C@H](Cc4ccc(-c5ccccc5)cc4)NC3=O)cc2)cc1 [Example 5111] ({CH2CO}-[Ala(morpholin-4-yl)][Phe(4-COOH)]D[Phe(3-CF3)][Bip(4'-NHAc)][Bip][Orn][NMeA][dL][Dab][Cha]VNC[Dab]-NH2; thioether N-14) | 0.0047 µM
12 | CC(=O)Nc1ccc(-c2ccc(C[C@@H]3NC(=O)[C@H](Cc4cccc(C)c4)NC(=O)[C@H](CC(=O)O)NC(=O)[C@H](Cc4ccc(-c5ccc(C(=O)O)cc5)cc4)NC(=O)[C@H](CN4CCOCC4)NC(=O)CSC[C@@H](C(=O)N[C@@H](CCN)C(N)=O)NC(=O)[C@H](CO)NC(=O)[C@H](C(C)(C)O)NC(=O)[C@H](CC4CCCCC4)NC(=O)[C@H](Cc4cnc[nH]4)NC(=O)[C@@H](CC(C)C)NC(=O)[C@H](C)N(C)C(=O)[C@H](Cc4ccc(C(=O)O)cc4)NC(=O)[C@H](Cc4ccc(-c5ccccc5)cc4)NC3=O)cc2)cc1 [Example 5123] ({CH2CO}-[Ala(morpholin-4-yl)][Bip(4'-COOH)]D[Phe(3-Me)][Bip(4'-NHAc)][Bip][Phe(4-COOH)][NMeA][dL]H[Cha][Val(3-OH)]SC[Dab]-NH2; thioether N-14) | 0.0094 µM
